The source of these data is US20040259184A1, “Fluorescent methods for the high-throughput quantification of tartrate-resistant acid phosphatase (TRAP)” (Pharmacia Corporation, priority 2003, published 2004).

For assay [1], the system named is TRAP activity in RAW 264.7 monocyte-macrophage cells differentiated into OCL. Nature of the assay: Fluorescent per-well TRAP activity assay in RAW cells differentiated into OCL. The class given is cell-based. The settings on record: for Effect on TRAP activity: day 6; for Effect on detection of TRAP fluorescence: up to 10.0 uM; for Effect on detection of TRAP fluorescence / Compound amount at which decrease of TRAP fluorescence is maximal / Compound amount at which dramatic decrease of TRAP fluorescence starts / Inhibition of TRAP activity (result in words): day 6, FIG. 4; for Inhibition of TRAP activity (result in words): IC50's comparable to previously published data. The method, then:
(§1) RAW (RAW 264.7 monocyte-macrophage) RAW (ATTC, Manassas, Va.) cells were maintained in culture using DMEM (Dulbecco's Modified Eagle Medium) media containing L-glutamine at 584 mg/L, 1% penicillin/streptomycin, and 10% FBS (fetal bovine serum). For osteoclast differentiation RAW cells were put down onto 96 well plates at a density of 1,000 cells per well in alpha MEM (Minimum Essential Medium) media containing L-glutamine at 292 mg/L, 1% penicillin/streptomycin, 10% FBS, soluble RANKL (PeproTech, Rocky Hill, N.J.) at 10 ng/ml, and M-CSF (Cell Sciences, Norwood, Mass.) at 25 ng/ml. All media were changed every two days. For experiments with compounds, the compounds were added at the time of plating the cells in differentiation media. Additionally compounds were replenished during every media change leading up to the day 6 termination of the experiment.
(§2) Media was removed and cells were fixed onto their plated surface with 4% formaldehyde (Sigma, Saint Louis, Mo.) in PBS (Phosphate Buffer Saline) solution for 20 minutes. After fixing, cells were permeablized in PBS with 0.1% Tween (Sigma, Saint Louis, Mo.) for 15 minutes. Cells were then incubated with 200 uM of ELF 97 phosphatase substrate (Molecular Probes, Eugene, Oreg.) for 15 minutes in a 3.4 mM acetate buffered solution (pH 5.0) containing 6.7 mM Tartrate (Sigma, Saint Louis, Mo.). These conditions (of slightly acidic pH and high concentrations of tartrate) discriminate TRAP activity from other phosphatases. Cells were then washed twice with PBS (pH 7.4). After the final wash, plates were immediately quantified for TRAP activity.
(§3) Quantification of TRAP TRAP activity per well was quantified on a SpetraFluor Plus (Tecan, Research Triangle Park, N.C.) using an excitation of 360 nm and an emission of 550 nm using the optimal gain function. For quantification of the number of OCL, PI (propidium iodide) (Sigma, Saint Louis, Mo.) at a final concentration of 10 ug/ml was added to the TRAP stained cells to nonspecifically stain the cells. After PI staining the 96 well plates were analyzed using an ArrayScanII (Cellomics, Pittsburgh, Pa.) on the Nuclear Translocation software. In this Nuclear Translocation software analysis, the cytoplasmic image area is not used while the nuclear image area is expanded to encompass the entire PI stained cellular area. Cell size selection was performed through nuclear size selection criteria within Channel 1 of the Nuclear Translocation software package. TRAP intensity selection was performed through total fluorescence intensity utilizing Channel 2.

For assay [2], the system named is OCL differentiated from RAW 264.7 monocyte-macrophage cells. Description: Automated OCL counting assay (size and TRAP-intensity selected cells, ArrayScan). The settings on record: day 6, FIG. 5. The assay is classed as cell-based. As to the method: as §1, §2, §3
The determination of differentiation into OCL is typically based upon morphological criteria along with staining for TRAP. […] Therefore, basing differentiation solely upon per well TRAP activity could lead to a false positive reading. To circumvent this limitation we developed an automated approach to quantify the number of OCL based upon the size of the cells in addition to TRAP activity. Due to the limitations of the software analyses, the size of the cells were used in place of number of nuclei as a selection criteria for OCL formation. The size of the cells typically correlates with cell fusion and the number of nuclei. Also while some single nucleated cells can also be large in size, these cells typically tend not to be TRAP positive. The data capture was performed using the Cellomics ArrayScan 11, which is an automated fluorescent microscope and plate handler. The data analyses were performed by using the Cellomic's “Nuclear Translocation” imaging analysis software.

Another assay deals with OCL formation. The settings on record: previously published data (Matsumoto 2000; Kumar 2001); read-out: IC50 of dose dependent inhibition of OCL formation; cited from earlier work.

Take `COc1cccc(-c2cc(=O)c3ccccc3o2)c1N` [PD98059]: in assay [1], the “Effect on TRAP activity” value was “little effect” and the “Effect on detection of TRAP fluorescence” value is listed as “did not significantly inhibit”. In addition, the “Effect on number of TRAP positive cells counted” value in assay [2] (at 10.0 uM) is recorded as “no significant decrease”. The “Effect on the number of OCL” value in assay [2] is listed as “little effect”.

Consider `Oc1ccc(-c2nc(-c3ccc(F)cc3)c(-c3ccncc3)[nH]2)cc1` [SB202190], for which, in assay [1], the “Compound amount at which decrease of TRAP fluorescence is maximal” value amounted to 10.0 µM, the “Compound amount at which dramatic decrease of TRAP fluorescence starts” value came out at 1.0 µM and the “Inhibition of TRAP activity (result in words)” value was “dose dependent inhibition of TRAP activity”. Also, the IC50 with OCL formation is 1000 nM.

As for `CCc1nc(-c2ccc(OC)cc2)[nH]c1-c1ccncc1` [SB202474], in assay [1], the “Effect on TRAP activity” value was “little effect” and the “Effect on detection of TRAP fluorescence” value is recorded as “did not significantly inhibit”. Besides, in assay [2], the “Compound amount at which decrease in quantity of TRAP positive cells counted starts” value turned out to be 0.3 µM, the “Concentration at which decrease in TRAP positive cells counted is maximal (near zero amounts)” value was 10.0 µM and the “Effect on the number of OCL” value is “little effect”.

Take `C[S+]([O-])c1ccc(-c2nc(-c3ccc(F)cc3)c(-c3ccncc3)[nH]2)cc1` (stereo not drawn) [SB203580]: in assay [1], the “Compound amount at which decrease of TRAP fluorescence is maximal” value worked out at 10.0 µM, the “Compound amount at which dramatic decrease of TRAP fluorescence starts” value amounted to 1.0 µM and the “Inhibition of TRAP activity (result in words)” value is listed as “dose dependent inhibition of TRAP activity”. For the same molecule, in assay [2], the “Compound amount at which decrease in quantity of TRAP positive cells counted starts” value was 0.3 µM and the “Concentration at which decrease in TRAP positive cells counted is maximal (near zero amounts)” value is 10.0 µM.

One may read the IC50 as the point on the concentration scale where inhibition reaches its midpoint.
